Reference: ChEMBL document CHEMBL1201862, “PubChem BioAssay data set” (2004)
The source made the active and inactive calls.

Columns and labels:
[1] = biological target: Eukaryotic translation initiation factor 4E (Mus musculus, UniProt P63073); test: blockers of eIF4G binding by eIF4E – biochemical, TR-FRET, dose response (AID 855); format: functional;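 also: potency for disrupting eIF4E binding to eIF4GI seen as loss of FRET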
[2] = biological target: T1, Leucine aminopeptidase (Plasmodium falciparum 3D7, UniProt Q8IL11); test: P. falciparum M17LAP inhibitors, primary screen, biochemical, fluorogenic H-Leu-NHMec substrate, 1536-well (AID 1619); format: functional
T1 sequence (Q8IL11 whole entry): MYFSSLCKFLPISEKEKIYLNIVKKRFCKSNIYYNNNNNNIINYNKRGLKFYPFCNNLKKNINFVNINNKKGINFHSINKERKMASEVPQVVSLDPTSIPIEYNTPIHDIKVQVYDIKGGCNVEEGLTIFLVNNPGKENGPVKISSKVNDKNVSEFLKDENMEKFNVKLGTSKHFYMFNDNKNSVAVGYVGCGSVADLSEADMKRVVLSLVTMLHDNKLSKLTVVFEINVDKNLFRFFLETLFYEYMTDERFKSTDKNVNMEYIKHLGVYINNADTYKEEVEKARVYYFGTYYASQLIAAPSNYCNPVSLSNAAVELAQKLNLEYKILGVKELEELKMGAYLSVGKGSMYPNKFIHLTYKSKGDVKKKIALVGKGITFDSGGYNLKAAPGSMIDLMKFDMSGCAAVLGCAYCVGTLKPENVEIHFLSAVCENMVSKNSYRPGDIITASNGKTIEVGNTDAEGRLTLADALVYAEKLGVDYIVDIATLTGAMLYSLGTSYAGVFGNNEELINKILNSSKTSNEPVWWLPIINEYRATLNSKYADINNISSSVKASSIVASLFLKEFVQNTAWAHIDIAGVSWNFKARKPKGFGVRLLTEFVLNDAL

[3] = biological target: T2, Tyrosine-protein phosphatase non-receptor type 7 (Homo sapiens, UniProt P35236); format: functional
T2 sequence (P35236 whole entry): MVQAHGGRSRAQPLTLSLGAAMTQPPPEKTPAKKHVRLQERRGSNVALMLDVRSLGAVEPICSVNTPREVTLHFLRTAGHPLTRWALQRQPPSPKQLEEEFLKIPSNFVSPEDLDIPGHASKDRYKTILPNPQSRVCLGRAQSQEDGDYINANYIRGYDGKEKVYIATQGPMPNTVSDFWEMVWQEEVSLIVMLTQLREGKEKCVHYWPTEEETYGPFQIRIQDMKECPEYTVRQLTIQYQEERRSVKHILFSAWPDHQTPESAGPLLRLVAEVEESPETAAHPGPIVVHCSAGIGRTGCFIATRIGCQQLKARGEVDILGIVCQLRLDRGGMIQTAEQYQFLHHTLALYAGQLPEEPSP

[4] = biological target: T3, Tyrosine-protein phosphatase non-receptor type 22 (Homo sapiens, UniProt Q9Y2R2); format: functional
T3 sequence (Q9Y2R2 whole entry): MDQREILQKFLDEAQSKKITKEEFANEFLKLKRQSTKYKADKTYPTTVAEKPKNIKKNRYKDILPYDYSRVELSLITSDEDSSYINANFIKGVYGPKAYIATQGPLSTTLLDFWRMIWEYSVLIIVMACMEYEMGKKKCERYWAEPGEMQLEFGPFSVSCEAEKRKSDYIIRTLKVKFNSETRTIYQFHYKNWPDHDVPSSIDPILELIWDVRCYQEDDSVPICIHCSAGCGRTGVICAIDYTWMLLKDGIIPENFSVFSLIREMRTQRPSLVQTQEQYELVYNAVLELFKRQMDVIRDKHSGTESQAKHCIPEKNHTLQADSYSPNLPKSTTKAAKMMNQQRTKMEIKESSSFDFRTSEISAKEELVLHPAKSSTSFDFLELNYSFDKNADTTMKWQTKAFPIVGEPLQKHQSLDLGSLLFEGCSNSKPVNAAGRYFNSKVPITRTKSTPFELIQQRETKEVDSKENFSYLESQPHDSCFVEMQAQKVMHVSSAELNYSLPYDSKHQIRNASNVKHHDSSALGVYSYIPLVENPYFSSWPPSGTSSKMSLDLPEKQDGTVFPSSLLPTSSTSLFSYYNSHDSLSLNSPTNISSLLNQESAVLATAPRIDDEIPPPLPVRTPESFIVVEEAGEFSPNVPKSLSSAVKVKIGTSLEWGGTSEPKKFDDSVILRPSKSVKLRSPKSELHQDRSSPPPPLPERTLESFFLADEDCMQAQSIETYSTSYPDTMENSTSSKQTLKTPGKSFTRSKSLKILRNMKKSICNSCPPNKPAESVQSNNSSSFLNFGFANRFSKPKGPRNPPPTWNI

[5] = biological target: T3, Tyrosine-protein phosphatase non-receptor type 22; format: functional; remark: listed apart in the source
[6] = THP-1 cell cytotoxicity, dose response, cytotoxicity control for non-replicating M. tuberculosis project (AID 489025); format: functional
[7] = HepG2 cell cytotoxicity, dose response, cytotoxicity control for non-replicating M. tuberculosis project (AID 489018); format: functional; conditions: Mycobacterium tuberculosis
[8] = biological target: G-protein coupled receptor 55 (Homo sapiens, UniProt Q9Y2T6); test: inhibition of LPI-stimulated GPR55 beta-arrestin translocation – imaging, U2OS, beta-arrestin-GFP, LPI agonist, primary screen (AID 2013); format: functional;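 also: antagonist potency measured as reduced agonist-driven arrestin aggregation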
Sequence of G-protein coupled receptor 55 (Q9Y2T6 whole entry): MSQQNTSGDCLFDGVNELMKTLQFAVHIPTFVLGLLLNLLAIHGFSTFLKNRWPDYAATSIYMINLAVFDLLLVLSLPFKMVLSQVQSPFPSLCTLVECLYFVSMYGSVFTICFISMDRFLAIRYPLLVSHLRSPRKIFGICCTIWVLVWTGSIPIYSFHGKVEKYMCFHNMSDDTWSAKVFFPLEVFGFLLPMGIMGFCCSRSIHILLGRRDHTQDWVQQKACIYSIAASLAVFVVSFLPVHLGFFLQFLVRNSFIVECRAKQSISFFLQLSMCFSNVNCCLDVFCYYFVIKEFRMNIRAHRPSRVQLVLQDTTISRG

[9] = biological target: DNA dC->dU-editing enzyme APOBEC-3A (Homo sapiens, UniProt P31941); test: Dose Response confirmation of small molecule APOBEC3A DNA Deaminase Inhibitors via a fluorescence-based single-stranded DNA deaminase assay. [Related pubchem assays (depositor defined):AID493011, AID493024]; format: functional
Sequence of DNA dC->dU-editing enzyme APOBEC-3A (P31941 whole entry): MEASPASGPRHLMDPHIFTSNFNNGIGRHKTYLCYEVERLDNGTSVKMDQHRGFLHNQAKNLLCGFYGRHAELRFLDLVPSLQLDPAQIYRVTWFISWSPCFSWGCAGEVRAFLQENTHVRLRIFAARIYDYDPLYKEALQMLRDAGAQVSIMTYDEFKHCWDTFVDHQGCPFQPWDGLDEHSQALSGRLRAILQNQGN

[10] = biological target: DNA dC->dU-editing enzyme APOBEC-3G (Homo sapiens, UniProt Q9HC16); format: functional;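 also: Dose-response counterscreen measuring inhibition of APOBEC3G DNA deaminase activity, run while confirming APOBEC3A inhibitors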
Sequence of DNA dC->dU-editing enzyme APOBEC-3G (Q9HC16 whole entry): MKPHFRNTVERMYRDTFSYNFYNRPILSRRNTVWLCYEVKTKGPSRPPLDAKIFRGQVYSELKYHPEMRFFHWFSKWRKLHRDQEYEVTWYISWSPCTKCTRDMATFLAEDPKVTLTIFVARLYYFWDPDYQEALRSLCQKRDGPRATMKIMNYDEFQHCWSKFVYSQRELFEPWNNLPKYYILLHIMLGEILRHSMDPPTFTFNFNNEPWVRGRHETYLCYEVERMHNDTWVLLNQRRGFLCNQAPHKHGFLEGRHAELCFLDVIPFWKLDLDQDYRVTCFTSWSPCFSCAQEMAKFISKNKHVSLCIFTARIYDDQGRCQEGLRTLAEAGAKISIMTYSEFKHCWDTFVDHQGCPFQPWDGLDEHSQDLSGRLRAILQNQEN

[11] = biological target: T4, Bcl-2-like protein 10 (Homo sapiens, UniProt Q9HD36); test: Bcl-B/TR3 peptide binding disruption – biochemical, fluorescence polarization, FITC-TR3 peptide, selectivity assay for Bfl-1 inhibitor project, primary screen (AID 748);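 also: fluorescence polarization from a fluorescein-labelled TR3 peptide binding purified Bcl-B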
T4 sequence (Q9HD36 whole entry): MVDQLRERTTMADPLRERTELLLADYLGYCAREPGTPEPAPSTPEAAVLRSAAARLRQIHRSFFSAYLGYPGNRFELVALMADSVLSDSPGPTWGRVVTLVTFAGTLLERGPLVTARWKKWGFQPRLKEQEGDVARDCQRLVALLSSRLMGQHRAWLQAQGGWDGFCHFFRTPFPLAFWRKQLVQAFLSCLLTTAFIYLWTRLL

[12] = cells; format: functional
[13] = Luminescence Cell-Based Dose Confirmation HTS to Identify Activators of 5'UTR Stem-Loop Driven Alpha-Synuclein mRNA Translation in H4 Neuroglioblastoma Cells. [Related pubchem assays: 1829 (Project Summary), 1814 (Primary HTS)]; format: functional
[14] = Luminescence Cell-Based Dose Response HTS to Identify Activators of Luciferase Translation or Activity in H4 […] Cells. [Related pubchem assays: 1829 (Project Summary), 1814 (Primary HTS)]; format: functional
[15] = tested on: H4; test: Luminescence Cell-Based Dose Response HTS to Identify Activators of 5'UTR Stem-Loop Driven Prion Protein mRNA Translation in H4 Neuroglioblastoma Cells. [Related pubchem assays: 1829 (Project Summary), 1814 (Primary HTS)]; format: functional; conditions: Homo sapiens
[16] = biological target: Tumor necrosis factor (Homo sapiens, UniProt P01375); test: analog potency on TNFa NF-kB signaling – cell-based, revised, SAR follow-up (AID 2337); format: functional
Sequence of Tumor necrosis factor (P01375 whole entry, the tested form may be a part): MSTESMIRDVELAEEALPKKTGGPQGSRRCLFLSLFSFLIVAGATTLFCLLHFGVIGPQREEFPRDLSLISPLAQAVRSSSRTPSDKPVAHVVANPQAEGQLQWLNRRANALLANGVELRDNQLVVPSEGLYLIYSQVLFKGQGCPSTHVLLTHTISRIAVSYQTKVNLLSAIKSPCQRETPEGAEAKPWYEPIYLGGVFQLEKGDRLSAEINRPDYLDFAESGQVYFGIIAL

[17] = biological target: T5, Nucleotide-binding oligomerization domain-containing protein 1 (Homo sapiens, UniProt Q9Y239); test: blockers of NOD1 pathway activity – revised, SAR follow-up (AID 2333); format: functional
T5 sequence (Q9Y239 whole entry): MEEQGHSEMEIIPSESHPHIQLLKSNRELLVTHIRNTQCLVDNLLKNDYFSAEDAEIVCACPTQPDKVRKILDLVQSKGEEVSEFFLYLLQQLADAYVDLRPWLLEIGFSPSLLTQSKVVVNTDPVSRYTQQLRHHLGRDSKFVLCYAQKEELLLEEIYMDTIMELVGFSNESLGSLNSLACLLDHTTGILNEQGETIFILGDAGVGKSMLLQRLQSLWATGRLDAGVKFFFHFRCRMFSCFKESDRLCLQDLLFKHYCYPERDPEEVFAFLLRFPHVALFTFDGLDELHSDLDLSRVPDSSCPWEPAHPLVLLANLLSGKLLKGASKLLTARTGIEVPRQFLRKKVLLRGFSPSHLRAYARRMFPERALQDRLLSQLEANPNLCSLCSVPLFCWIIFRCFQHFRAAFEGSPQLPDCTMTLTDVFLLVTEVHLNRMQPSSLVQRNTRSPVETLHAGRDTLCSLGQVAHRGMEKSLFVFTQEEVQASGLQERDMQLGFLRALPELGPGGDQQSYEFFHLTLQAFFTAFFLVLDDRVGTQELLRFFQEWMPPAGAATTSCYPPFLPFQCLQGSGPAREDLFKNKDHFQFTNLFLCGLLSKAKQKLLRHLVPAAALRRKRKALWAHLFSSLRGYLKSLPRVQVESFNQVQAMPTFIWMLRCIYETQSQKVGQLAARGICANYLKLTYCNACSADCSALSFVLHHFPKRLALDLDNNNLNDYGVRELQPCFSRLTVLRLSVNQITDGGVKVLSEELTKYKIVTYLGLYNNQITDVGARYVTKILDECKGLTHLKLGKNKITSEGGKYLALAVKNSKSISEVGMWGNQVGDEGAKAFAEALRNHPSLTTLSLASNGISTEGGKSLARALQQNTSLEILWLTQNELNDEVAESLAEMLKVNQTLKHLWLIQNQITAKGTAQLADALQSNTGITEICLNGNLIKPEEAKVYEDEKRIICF

[18] = tested on: HEK293; test: cells; conditions: Homo sapiens;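 also: cells exposed to compound for 14 hours overnight before viability readout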
[19] = tested on: H9c2; test: cells; format: functional, cell-based; conditions: Rattus norvegicus, H9c2, Myocardium;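 also: confirmatory concentration-response retest of ultra-high-throughput screening hits for modulation of myocardial damage; cell death induced by hydrogen peroxide oxidative stress; compound pretreatment for 60 min then peroxide exposure for 2 h; potency is for protecting the cells against peroxide damage rather than for killing them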
[20] = NIH-3T3 fibroblast cytotoxicity, dose response, cytotoxicity control, cell-based, fluorescence, Alamar Blue, secondary assay (AID 2327); format: functional;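 also: NIH-3T3 mouse fibroblasts cultured with fluconazole at 8 µg/mL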
[21] = luciferase reporter signal suppression in cells – H4 neuroglioma cells, luminescence, dose response (AID 1990); format: functional, cell-based
[22] = Luminescence Cell-Based Dose Response HTS to Identify Inhibitors of 5'UTR Stem-Loop Driven Prion Protein mRNA Translation in H4 Neuroglioblastoma Cells. [Related pubchem assays: 1827 (Project Summary), 1813 (Primary HTS)]; format: functional
[23] = alpha-synuclein stem-loop luciferase translation blockers – H4 neuroglioma cells, luminescence, confirmation (AID 1988); format: functional, cell-based
[24] = fluconazole-exposed Candida albicans growth modulators – fluorescence, retest, confirmation (AID 2467); format: functional, cell-based
[25] = HEK-293T viability loss after treatment – luminescence, T-cell screen hits, cytotoxicity control for TCR NF-kB inhibitor project, dose response (AID 489026); format: functional, cell-based;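 also: cells exposed to compound about 14 hours before the viability readout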

Sequence of Eukaryotic translation initiation factor 4E (P63073 whole entry): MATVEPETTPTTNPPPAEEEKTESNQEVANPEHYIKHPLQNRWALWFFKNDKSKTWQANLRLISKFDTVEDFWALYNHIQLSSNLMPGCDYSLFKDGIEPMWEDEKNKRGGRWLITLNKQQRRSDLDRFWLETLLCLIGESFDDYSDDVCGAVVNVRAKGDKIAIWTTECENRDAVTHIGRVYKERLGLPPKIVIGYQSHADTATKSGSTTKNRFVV

## COc1ccc(CC(=O)Nc2ccc(-c3nnc(-c4ccccc4)o3)cc2)cc1OC
[1]
  IC50: > 64 µM (inactive)

## O=C(O)C1CCCCC1C(=O)Nc1ccc(F)c(F)c1 (stereo not drawn)
[2]
  IC50: 37.8 µM (active)
[3]
  IC50: > 79.4 µM (inactive)
[4]
  IC50: > 79.4 µM (inactive)
[5]
  IC50: > 79.4 µM (inactive)

## O=C(NNC1=C(C(=O)C(F)(F)F)CCC1)c1ccccc1Cl
[6]
  CC50: 13.6 µM (active)
[7]
  CC50: > 20 µM (active)

## CCCCCn1c(C(Cc2ccccc2)NC(C)=O)nc2ccccc21 (stereo not drawn)
[8]
  IC50: 4.08 µM (active)

## O=C(CNC(=O)c1ccc(Cl)cc1)NCC(F)(F)F
[3]
  IC50: > 79.4 µM (inactive)
[4]
  IC50: > 79.4 µM (inactive)
[5]
  IC50: > 79.4 µM (inactive)

## CCSc1nnc(NC(=O)C2CCCCC2C(=O)O)s1 (stereo not drawn)
[3]
  IC50: > 79.4 µM (inactive)
[4]
  IC50: > 79.4 µM (inactive)
[5]
  IC50: > 79.4 µM (inactive)

## Cc1n(CC(O)COCc2ccccc2)c2ccccc2[n+]1C (stereo not drawn)
[9]
  IC50: 2.82 µM (active)
[10]
  IC50: 5.05 µM (active)

## Clc1ccc2nc(CN3CCCc4ccccc43)cn2c1
[11]
  IC50: 72.5 µM (inactive)

## O=C(CN1CCC(NC(=O)c2cccc(F)c2)CC1)Nc1ccc(Br)cc1
[12]
  IC50: 47.8 µM (active)

## CCCn1nc(NC(=O)COC)c2cc3cc(C)ccc3nc21
[13]
  EC50: 3.88 µM (active)
[14]
  EC50: 12.9 µM (active)
[15]
  EC50: > 120 µM (inconclusive)
[9]
  IC50: 2.71 µM (active)
[10]
  IC50: 2.89 µM (active)

## S=C(Nc1cccc(Cl)c1Cl)N1CCC2(CC1)OCCO2
[1]
  IC50: 50 µM (inactive)

## COc1ccc(C(=O)Nc2sc3c(c2C(=O)O)CC(C)(C)OC3)cc1OC
[16]
  IC50: > 20 µM (inactive)
[17]
  IC50: 15.1 µM (active)
[18]
  IC50: > 20 µM (inactive)

## O=C(COc1ccc(F)cc1)N/N=C/c1cccc2cccnc12
[6]
  CC50: 24.8 µM (active)
[12]
  IC50: 17.2 µM (active)
[19]
  IC50: 20.8 µM (active)

## CC[n+]1cc(C)ccc1C=Cc1ccc(N(C)C)cc1
[20]
  EC50: 58.6 µM (active)
[21]
  EC50: 11.7 µM (active)
[22]
  EC50: 65.4 µM (active)
[23]
  EC50: 10.4 µM (active)
[24]
  EC50: 1.25 µM (active)
[9]
  IC50: 2.73 µM (active)
[25]
  IC50: > 80 µM (inactive)
[10]
  IC50: 4.02 µM (active)
